From US4708871A, “Antigenically active amino acid sequences” (priority 1983, dated 1987)
“And” between values parts separate entries of the source, which are not always exact repeats. Identical values can stand only once. No end group written: not given here.

Tested on: antiserum known to react with the original sequence (FMDV Type A10)
Format: binding, rabbit

GDLGSI [GDLGSI] was tested, and the “Antibody-binding activity, percentage of the mean activity of the six parent sequences” value was 105 percentage and 118 percentage and 88 percentage and 98 percentage and 85 percentage and 106 percentage.
